From patent publication US10273221B2, “Microbiocidal heterobicyclic derivatives” (Syngenta Participations AG, priority 2015, dated 2019)

Test system: Glomerella lagenarium (Colletotrichum lagenarium)
Assay: Glomerella lagenarium (Colletotrichum lagenarium) / liquid culture (anthracnose)
Assay type: cell-based
Details: Colletotrichum orbiculare, growth inhibition measured photometrically 3-4 days after application, vs untreated control, read-out: disease control

| SMILES | inhibition of growth at 200 ppm [%] |
| --- | --- |
| C=C(C)c1cccc2c1ncn2C1=NC(C)(C)C(C)(C)c2c(F)cccc21 [E-11] | ≥ 80 |
| CC(C)c1cccc2c1ncn2C1=NC(C)(C)C(C)(C)c2c(F)cccc21 [E-12] | ≥ 80 |
| C=Cc1cccc2c1ncn2C1=NC(C)(C)C(C)(C)c2c(F)cccc21 [E-13] | ≥ 80 |
| CCc1cccc2c1ncn2C1=NC(C)(C)C(C)(C)c2c(F)cccc21 [E-14] | ≥ 80 |
| Cc1cccc2c1ncn2C1=NC(C)(C)C(F)(F)c2ccccc21 [E-15] | ≥ 80 |
| CC1(C)N=C(n2cnc3c(Cl)cccc32)c2cccc(F)c2C1(C)C [E-17] | ≥ 80 |

Test system: Botryotinia fuckeliana (Botrytis cinerea)
Assay: Botryotinia fuckeliana (Botrytis cinerea) / liquid culture (gray mould)
Assay type: cell-based
Details: growth inhibition determined photometrically 3-4 days after application, vs untreated control, read-out: disease control

| SMILES | inhibition of growth at 200 ppm [%] |
| --- | --- |
| C=C(C)c1cccc2c1ncn2C1=NC(C)(C)C(C)(C)c2c(F)cccc21 [E-11] | ≥ 80 |
| CC(C)c1cccc2c1ncn2C1=NC(C)(C)C(C)(C)c2c(F)cccc21 [E-12] | ≥ 80 |
| C=Cc1cccc2c1ncn2C1=NC(C)(C)C(C)(C)c2c(F)cccc21 [E-13] | ≥ 80 |
| CCc1cccc2c1ncn2C1=NC(C)(C)C(C)(C)c2c(F)cccc21 [E-14] | ≥ 80 |
| Cc1cccc2c1ncn2C1=NC(C)(C)C(F)(F)c2ccccc21 [E-15] | ≥ 80 |
| CC1(C)N=C(n2cnc3c(Cl)cccc32)c2cccc(F)c2C1(C)C [E-17] | ≥ 80 |

Test system: not given
Assay: not given
Details: not given

| SMILES | melting point [°C] |
| --- | --- |
| CC(C)c1cccc2c1ncn2C1=NC(C)(C)C(C)(C)c2c(F)cccc21 [E-12] | 113 to 114 |
| C=Cc1cccc2c1ncn2C1=NC(C)(C)C(C)(C)c2c(F)cccc21 [E-13] | 70 to 71 |
| CCc1cccc2c1ncn2C1=NC(C)(C)C(C)(C)c2c(F)cccc21 [E-14] | 87 to 88 |
| CC1(C)N=C(n2cnc3c(Cl)cccc32)c2cccc(F)c2C1(C)C [E-17] | 50 to 51 |

Test system: Sclerotinia sclerotiorum
Assay: Sclerotinia sclerotiorum / liquid culture (cottony rot)
Details: 72 h, read-out: control of Sclerotinia sclerotiorum
Method: Sclerotinia sclerotiorum/Liquid Culture (Cottony Rot)
Mycelia fragments of a newly grown liquid culture of the fungus are directly mixed into nutrient broth (Vogels broth). After placing a (DMSO) solution of test compound into a microtiter plate (96-well format) the nutrient broth containing the fungal material is added. The test plates are incubated at 24° C. and the inhibition of growth is determined photometrically 3-4 days after application.

| SMILES | inhibition of growth at 20 ppm [%] |
| --- | --- |
| Cc1cccc2c1ncn2C1=NC(C)(C)C(F)(F)c2ccccc21 [E-15] | ≥ 80 |
| CC1(C)N=C(n2cnc3c(Cl)cccc32)c2cccc(F)c2C1(C)C [E-17] | ≥ 80 |

Test system: Gaeumannomyces graminis
Assay: Gaeumannomyces graminis / liquid culture (take-all of cereals)
Assay type: cell-based
Details: growth inhibition determined photometrically 4-5 days after application, vs untreated control, read-out: disease control

| SMILES | inhibition of growth at 200 ppm [%] |
| --- | --- |
| CCc1cccc2c1ncn2C1=NC(C)(C)C(C)(C)c2c(F)cccc21 [E-14] | ≥ 80 |
| Cc1cccc2c1ncn2C1=NC(C)(C)C(F)(F)c2ccccc21 [E-15] | ≥ 80 |
| CC1(C)N=C(n2cnc3c(Cl)cccc32)c2cccc(F)c2C1(C)C [E-17] | ≥ 80 |

Test system: Magnaporthe grisea (Pyricularia oryzae)
Assay: microbe, parasite or virus in culture
Assay type: cell-based
Details: 72 h, read-out: control of Magnaporthe grisea

| SMILES | inhibition of growth at 20 ppm [%] |
| --- | --- |
| C=C(C)c1cccc2c1ncn2C1=NC(C)(C)C(C)(C)c2c(F)cccc21 [E-11] | ≥ 80 |
| CC(C)c1cccc2c1ncn2C1=NC(C)(C)C(C)(C)c2c(F)cccc21 [E-12] | ≥ 80 |
| C=Cc1cccc2c1ncn2C1=NC(C)(C)C(C)(C)c2c(F)cccc21 [E-13] | ≥ 80 |
| CCc1cccc2c1ncn2C1=NC(C)(C)C(C)(C)c2c(F)cccc21 [E-14] | ≥ 80 |
| Cc1cccc2c1ncn2C1=NC(C)(C)C(F)(F)c2ccccc21 [E-15] | ≥ 80 |
| CC1(C)N=C(n2cnc3c(Cl)cccc32)c2cccc(F)c2C1(C)C [E-17] | ≥ 80 |

Test system: Fusarium culmorum
Assay: microbe, parasite or virus in culture
Assay type: cell-based
Details: 72 h, read-out: disease control

| SMILES | inhibition of growth at 200 ppm [%] |
| --- | --- |
| CCc1cccc2c1ncn2C1=NC(C)(C)C(C)(C)c2c(F)cccc21 [E-14] | ≥ 80 |
| Cc1cccc2c1ncn2C1=NC(C)(C)C(F)(F)c2ccccc21 [E-15] | ≥ 80 |
| CC1(C)N=C(n2cnc3c(Cl)cccc32)c2cccc(F)c2C1(C)C [E-17] | ≥ 80 |

Test system: Pyrenophora teres
Assay: Pyrenophora teres / liquid culture (net blotch)
Assay type: cell-based
Details: growth inhibition determined photometrically 3-4 days after application, vs untreated control

| SMILES | inhibition of growth at 20 ppm [%] |
| --- | --- |
| C=C(C)c1cccc2c1ncn2C1=NC(C)(C)C(C)(C)c2c(F)cccc21 [E-11] | ≥ 80 |
| CC(C)c1cccc2c1ncn2C1=NC(C)(C)C(C)(C)c2c(F)cccc21 [E-12] | ≥ 80 |
| C=Cc1cccc2c1ncn2C1=NC(C)(C)C(C)(C)c2c(F)cccc21 [E-13] | ≥ 80 |
| CCc1cccc2c1ncn2C1=NC(C)(C)C(C)(C)c2c(F)cccc21 [E-14] | ≥ 80 |
| Cc1cccc2c1ncn2C1=NC(C)(C)C(F)(F)c2ccccc21 [E-15] | ≥ 80 |
| CC1(C)N=C(n2cnc3c(Cl)cccc32)c2cccc(F)c2C1(C)C [E-17] | ≥ 80 |

Test system: Monographella nivalis (Microdochium nivale)
Assay: Monographella nivalis (Microdochium nivale) / liquid culture (foot rot cereals)
Assay type: cell-based
Details: 96 h, growth inhibition determined photometrically 4-5 days after application, vs untreated control, read-out: disease control

| SMILES | inhibition of growth at 200 ppm [%] |
| --- | --- |
| C=C(C)c1cccc2c1ncn2C1=NC(C)(C)C(C)(C)c2c(F)cccc21 [E-11] | ≥ 80 |
| CC(C)c1cccc2c1ncn2C1=NC(C)(C)C(C)(C)c2c(F)cccc21 [E-12] | ≥ 80 |
| C=Cc1cccc2c1ncn2C1=NC(C)(C)C(C)(C)c2c(F)cccc21 [E-13] | ≥ 80 |
| CCc1cccc2c1ncn2C1=NC(C)(C)C(C)(C)c2c(F)cccc21 [E-14] | ≥ 80 |
| Cc1cccc2c1ncn2C1=NC(C)(C)C(F)(F)c2ccccc21 [E-15] | ≥ 80 |
| CC1(C)N=C(n2cnc3c(Cl)cccc32)c2cccc(F)c2C1(C)C [E-17] | ≥ 80 |
